Experimental data: PubChem BioAssay AID1963840 (Molecular Pharmacology Branch, DTP, NCI, 2024)

Test system: 695427-040-R-J1-PDC complex spheroid viability
Experiment: Anticancer human tumor 695427-040-R-J1-PDC patient-derived colon adenocarcinoma cell line growth inhibition [POLQ]
Details: for IC50: curve of first compound; for viability, T/C: stronger effect = lower value
Method in brief: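 Three-cell-type spheroids modelling solid tumor plus stroma served as the readout system; POL inhibitors were tested individually and in combination, concentration ranges set by clinical Cmax where known.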

[1] = second compound 0.0316 µM, first compound 0.00316 µM
[2] = second compound 0.0316 µM, first compound 0.01 µM
[3] = second compound 0.0316 µM, first compound 0.0316 µM
[4] = second compound 0.0316 µM, first compound 0.1 µM
[5] = second compound 0.0316 µM, first compound 0.316 µM
[6] = second compound 0.0316 µM, first compound 1 µM
[7] = second compound 0.1 µM, first compound 0.00316 µM
[8] = second compound 0.1 µM, first compound 0.01 µM
[9] = second compound 0.1 µM, first compound 0.0316 µM
[10] = second compound 0.1 µM, first compound 0.1 µM
[11] = second compound 0.1 µM, first compound 0.316 µM
[12] = second compound 0.1 µM, first compound 1 µM
[13] = second compound 0.316 µM, first compound 0.00316 µM
[14] = second compound 0.316 µM, first compound 0.01 µM
[15] = second compound 0.316 µM, first compound 0.0316 µM
[16] = second compound 0.316 µM, first compound 0.1 µM
[17] = second compound 0.316 µM, first compound 0.316 µM
[18] = second compound 0.316 µM, first compound 1 µM
[19] = second compound 1 µM, first compound 0.00316 µM
[20] = second compound 1 µM, first compound 0.01 µM
[21] = second compound 1 µM, first compound 0.0316 µM
[22] = second compound 1 µM, first compound 0.1 µM
[23] = second compound 1 µM, first compound 0.316 µM
[24] = second compound 1 µM, first compound 1 µM
[25] = second compound 3.16 µM, first compound 0.00316 µM
[26] = second compound 3.16 µM, first compound 0.01 µM
[27] = second compound 3.16 µM, first compound 0.0316 µM
[28] = second compound 3.16 µM, first compound 0.1 µM
[29] = second compound 3.16 µM, first compound 0.316 µM
[30] = second compound 3.16 µM, first compound 1 µM
[31] = second compound 10 µM, first compound 0.00316 µM
[32] = second compound 10 µM, first compound 0.01 µM
[33] = second compound 10 µM, first compound 0.0316 µM
[34] = second compound 10 µM, first compound 0.1 µM
[35] = second compound 10 µM, first compound 0.316 µM
[36] = second compound 10 µM, first compound 1 µM
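Note: spheroids exposed to compounds for seven days.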
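Throughout, for viability, T/C: 100% = DMSO vehicle control viability.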

**Q.** What does the source list for `C=CCn1c(=O)c2cnc(Nc3ccc(N4CCN(C)CC4)cc3)nc2n1-c1cccc(C(C)(C)O)n1` + Nc1ccc(C#CCN(C(=O)Cc2ncc(C(F)(F)F)cc2C(F)(F)F)c2ccc(F)cc2)nn1?
**A.** IC50 (second compound 0.0316 µM): > 1000 nM; IC50 (second compound 0.1 µM): > 1000 nM; IC50 (second compound 0.316 µM): > 1000 nM; IC50 (second compound 1 µM): > 1000 nM; IC50 (second compound 3.16 µM): > 1000 nM; IC50 (second compound 10 µM): > 1000 nM; viability, T/C [1]: 101%; viability, T/C [2]: 99.5%; viability, T/C [3]: 112%; viability, T/C [4]: 101%; viability, T/C [5]: 96.7%; viability, T/C [6]: 74.6%; viability, T/C [7]: 106%; viability, T/C [8]: 101%; viability, T/C [9]: 94.8%; viability, T/C [10]: 96.9%; viability, T/C [11]: 99.9%; viability, T/C [12]: 78%; viability, T/C [13]: 113%; viability, T/C [14]: 107%; viability, T/C [15]: 101%; viability, T/C [16]: 97.7%; viability, T/C [17]: 91.4%; viability, T/C [18]: 81%; viability, T/C [19]: 104%; viability, T/C [20]: 96%; viability, T/C [21]: 96.4%; viability, T/C [22]: 94.2%; viability, T/C [23]: 93.8%; viability, T/C [24]: 71.7%; viability, T/C [25]: 98.6%; viability, T/C [26]: 101%; viability, T/C [27]: 107%; viability, T/C [28]: 98.7%; viability, T/C [29]: 85.8%; viability, T/C [30]: 74.2%; viability, T/C [31]: 91.8%; viability, T/C [32]: 93.7%; viability, T/C [33]: 85.8%; viability, T/C [34]: 99.4%; viability, T/C [35]: 81.8%; viability, T/C [36]: 65.3%

**Q.** With `CCCS(=O)(=O)Nc1ccc(F)c(C(=O)c2c[nH]c3ncc(-c4ccc(Cl)cc4)cc23)c1F` + Nc1ccc(C#CCN(C(=O)Cc2ncc(C(F)(F)F)cc2C(F)(F)F)c2ccc(F)cc2)nn1 as the compound, how does the IC50 (second compound 0.0316 µM) read?
**A.** The IC50 was over 10000 nM.

**Q.** And the IC50 (second compound 0.1 µM)?
**A.** Its IC50 is over 10000 nM.

**Q.** And the IC50 (second compound 0.316 µM)?
**A.** Its IC50 is over 10000 nM.

**Q.** What about the IC50 (second compound 1 µM) of the same compound?
**A.** The IC50 was over 10000 nM.

**Q.** And the IC50 (second compound 3.16 µM)?
**A.** Its IC50 is over 10000 nM.

**Q.** What about the IC50 (second compound 10 µM) of the same compound?
**A.** Its IC50 is over 10000 nM.

**Q.** And the viability, T/C [3]?
**A.** The viability, T/C was 101%.

**Q.** What about the viability, T/C [4] of the same compound?
**A.** The viability, T/C was 100%.

**Q.** And the viability, T/C [5]?
**A.** The viability, T/C was 102%.

**Q.** What about the viability, T/C [6] of the same compound?
**A.** The viability, T/C was 111%.

**Q.** And the viability, T/C (second compound 0.0316 µM, first compound 3.16 µM)?
**A.** The viability, T/C was 117%.

**Q.** What about the viability, T/C (second compound 0.0316 µM, first compound 10 µM) of the same compound?
**A.** The viability, T/C was 88.8%.

**Q.** And the viability, T/C [9]?
**A.** Its viability, T/C is 112%.

**Q.** And the viability, T/C [10]?
**A.** Its viability, T/C is 108%.

**Q.** What about the viability, T/C [11] of the same compound?
**A.** The viability, T/C was 105%.

**Q.** What about the viability, T/C [12] of the same compound?
**A.** The viability, T/C was 106%.

**Q.** What about the viability, T/C (second compound 0.1 µM, first compound 3.16 µM) of the same compound?
**A.** The viability, T/C was 113%.

**Q.** And the viability, T/C (second compound 0.1 µM, first compound 10 µM)?
**A.** Its viability, T/C is 87.1%.

**Q.** What about the viability, T/C [15] of the same compound?
**A.** The viability, T/C was 100%.

**Q.** What about the viability, T/C [16] of the same compound?
**A.** Its viability, T/C is 108%.

**Q.** And the viability, T/C [17]?
**A.** The viability, T/C was 107%.

**Q.** And the viability, T/C [18]?
**A.** The viability, T/C was 102%.

**Q.** What about the viability, T/C (second compound 0.316 µM, first compound 3.16 µM) of the same compound?
**A.** The viability, T/C was 106%.

**Q.** And the viability, T/C (second compound 0.316 µM, first compound 10 µM)?
**A.** The viability, T/C was 85.4%.

**Q.** And the viability, T/C [21]?
**A.** Its viability, T/C is 103%.

**Q.** What about the viability, T/C [22] of the same compound?
**A.** The viability, T/C was 99.9%.

**Q.** What about the viability, T/C [23] of the same compound?
**A.** The viability, T/C was 107%.

**Q.** What about the viability, T/C [24] of the same compound?
**A.** Its viability, T/C is 102%.

**Q.** What about the viability, T/C (second compound 1 µM, first compound 3.16 µM) of the same compound?
**A.** Its viability, T/C is 110%.

**Q.** What about the viability, T/C (second compound 1 µM, first compound 10 µM) of the same compound?
**A.** The viability, T/C was 81.7%.

**Q.** And the viability, T/C [27]?
**A.** The viability, T/C was 109%.

**Q.** What about the viability, T/C [28] of the same compound?
**A.** The viability, T/C was 100%.

**Q.** And the viability, T/C [29]?
**A.** The viability, T/C was 103%.

**Q.** And the viability, T/C [30]?
**A.** Its viability, T/C is 107%.

**Q.** And the viability, T/C (second compound 3.16 µM, first compound 3.16 µM)?
**A.** The viability, T/C was 111%.

**Q.** What about the viability, T/C (second compound 3.16 µM, first compound 10 µM) of the same compound?
**A.** The viability, T/C was 88.8%.

**Q.** What about the viability, T/C [33] of the same compound?
**A.** Its viability, T/C is 95.1%.

**Q.** And the viability, T/C [34]?
**A.** Its viability, T/C is 92.8%.

**Q.** What about the viability, T/C [35] of the same compound?
**A.** Its viability, T/C is 110%.

**Q.** What about the viability, T/C [36] of the same compound?
**A.** Its viability, T/C is 95.3%.

**Q.** And the viability, T/C (second compound 10 µM, first compound 3.16 µM)?
**A.** The viability, T/C was 97.2%.

**Q.** What about the viability, T/C (second compound 10 µM, first compound 10 µM) of the same compound?
**A.** Its viability, T/C is 85.7%.

**Q.** What does the source list for `CC[C@@]1(O)C(=O)OCc2c1cc1n(c2=O)Cc2cc3c(CN(C)C)c(O)ccc3nc2-1` + Nc1ccc(C#CCN(C(=O)Cc2ncc(C(F)(F)F)cc2C(F)(F)F)c2ccc(F)cc2)nn1?
**A.** IC50 (second compound 0.0316 µM): > 100 nM; IC50 (second compound 0.1 µM): > 100 nM; IC50 (second compound 0.316 µM): > 100 nM; IC50 (second compound 1 µM): > 100 nM; IC50 (second compound 3.16 µM): > 100 nM; IC50 (second compound 10 µM): > 100 nM; viability, T/C (second compound 0.0316 µM, first compound 0.000316 µM): 110%; viability, T/C (second compound 0.0316 µM, first compound 0.001 µM): 111%; viability, T/C [1]: 102%; viability, T/C [2]: 102%; viability, T/C [3]: 115%; viability, T/C [4]: 109%; viability, T/C (second compound 0.1 µM, first compound 0.000316 µM): 114%; viability, T/C (second compound 0.1 µM, first compound 0.001 µM): 105%; viability, T/C [7]: 104%; viability, T/C [8]: 100%; viability, T/C [9]: 107%; viability, T/C [10]: 103%; viability, T/C (second compound 0.316 µM, first compound 0.000316 µM): 109%; viability, T/C (second compound 0.316 µM, first compound 0.001 µM): 102%; viability, T/C [13]: 108%; viability, T/C [14]: 97.7%; viability, T/C [15]: 108%; viability, T/C [16]: 101%; viability, T/C (second compound 1 µM, first compound 0.000316 µM): 100%; viability, T/C (second compound 1 µM, first compound 0.001 µM): 97.8%; viability, T/C [19]: 105%; viability, T/C [20]: 109%; viability, T/C [21]: 110%; viability, T/C [22]: 103%; viability, T/C (second compound 3.16 µM, first compound 0.000316 µM): 107%; viability, T/C (second compound 3.16 µM, first compound 0.001 µM): 111%; viability, T/C [25]: 102%; viability, T/C [26]: 107%; viability, T/C [27]: 114%; viability, T/C [28]: 103%; viability, T/C (second compound 10 µM, first compound 0.000316 µM): 99.5%; viability, T/C (second compound 10 µM, first compound 0.001 µM): 98.3%; viability, T/C [31]: 103%; viability, T/C [32]: 89.4%; viability, T/C [33]: 95.3%; viability, T/C [34]: 93.9%
